From the NIST ThermoML archive (doi:10.1021/je020053r) come the findings set out here.

± gives the expanded uncertainty stated by the source.

For series [1] the following is noted: 293.15 K; 101.33 kPa; Liquid.
A short description of series [2]: refractive index (Na D-line) (dimensionless). The settings on record: 293.15 K; 101.33 kPa; Liquid; Standard Abbe refractometry.

In the case of `O=Cc1ccco1` [2-furaldehyde], in series [1], the mass density stood at 1128.5 ± 15 kg/m3.
The same measure, in the same setting: to `CCCCCC` [hexane] belongs 659.3 ± 5 kg/m3.
On to `O` [water], for which the refractive index in series [2] was 1.333 ± 0.0007.
